Some results are limits rather than exact numbers.

The target of the first experiment is T1, androgen receptor (Homo sapiens, UniProt P10275).
T1 construct: endogenous in cells; host or cells: VCaP
T1 sequence (P10275 1-920): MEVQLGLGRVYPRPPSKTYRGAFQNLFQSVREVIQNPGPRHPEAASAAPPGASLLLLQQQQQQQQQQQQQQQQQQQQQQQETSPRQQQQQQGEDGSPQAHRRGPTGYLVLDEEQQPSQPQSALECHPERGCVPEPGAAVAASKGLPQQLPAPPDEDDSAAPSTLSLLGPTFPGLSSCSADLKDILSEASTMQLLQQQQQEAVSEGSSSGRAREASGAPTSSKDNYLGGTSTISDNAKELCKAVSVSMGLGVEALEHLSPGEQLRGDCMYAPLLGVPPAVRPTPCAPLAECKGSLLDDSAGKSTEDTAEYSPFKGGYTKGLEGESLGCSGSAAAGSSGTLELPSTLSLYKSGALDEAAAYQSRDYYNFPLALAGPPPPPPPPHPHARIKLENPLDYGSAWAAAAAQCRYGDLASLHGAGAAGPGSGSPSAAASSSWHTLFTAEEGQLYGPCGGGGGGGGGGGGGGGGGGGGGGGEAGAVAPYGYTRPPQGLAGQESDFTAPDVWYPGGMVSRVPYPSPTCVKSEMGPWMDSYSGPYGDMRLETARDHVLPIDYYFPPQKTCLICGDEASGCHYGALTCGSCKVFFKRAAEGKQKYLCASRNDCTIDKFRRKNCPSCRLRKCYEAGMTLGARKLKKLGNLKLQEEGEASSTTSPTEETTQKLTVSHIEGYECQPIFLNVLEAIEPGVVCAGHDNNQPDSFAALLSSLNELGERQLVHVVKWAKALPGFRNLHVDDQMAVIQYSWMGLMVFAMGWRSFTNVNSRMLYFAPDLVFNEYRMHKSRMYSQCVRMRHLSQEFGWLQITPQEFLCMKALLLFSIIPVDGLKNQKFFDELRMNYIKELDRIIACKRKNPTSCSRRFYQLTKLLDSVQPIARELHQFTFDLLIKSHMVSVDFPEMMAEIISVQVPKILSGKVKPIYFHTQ
Nature of the experiment: AR ELISA assay (PathScan AR Sandwich ELISA), VCaP cells. Type of experiment: cell-based. Particulars: drug treatment 5 hours. The protocol:
Compounds were evaluated in this assay in LNCaP and/or VCaP cells utilizing similar protocols. The protocols used with VCaP cells are described below. The androgen receptor ELISA assay was performed using PathScan AR Sandwich ELISA (Cell Signaling Catalog #12850) according to the following assay steps:
VCaP cells were seeded at 40,000 cells/well at a volume of 100 μL/well in VCaP assay medium [Phenol red free RPMI (Gibco Cat #11835-030); 5% Charcoal Stripped (Dextran treated) FBS (Omega Scientific, Cat #FB-04); 1% penstrep (Life Technologies, Gibco Cat #: 10378-016)] in Corning 3904 plates. The cells were incubated for a minimum of 3 days. Cells were dosed with PROTACs diluted in 0.01% DMSO and the drug treatment was allowed for 5 hours.
AR ELISA (Cell Signaling) was performed as follows. 1× Cell Signaling Cell lysis buffer was made (Catalogue #9803; comes with the kit). Media from the treated wells is aspirated, and 100 μL 1× cell lysis buffer/well is added. The cells were placed on a shaker for 10 minutes at 4° C. Twenty microliters of lysate was transferred to 100 μl of Diluent in ELISA plate (0.15 μg/ml-[…]). The lysate-diluent mixture was shaken for 30 minutes at 37° C. Allow mouse AR antibody, anti-mouse antibody, TMB, and STOP solution to come to room temperature. The 1×ELISA buffer included in kit was made and loaded in the reservoir. Media from the plates was discarded, the ELISA plate tapped hard on paper towel, and washed 4×200 μl ELISA wash buffer using a plate washer.
One-hundred (100) […] of mouse AR detection Ab was added; the plates were covered and shaken at 37° C. for 1 hour; media was discarded from the plates, the plates were tapped on a paper towel, washed 4× with 200 μL ELISA wash buffer with a plate washer.
One-hundred (100) […] of anti-mouse—HRP conjugated Ab (comes with the kit) was added; the plates were covered and shaken at 37° C. for 30 minutes; the TMB reagent was allowed to come to room temperature; the media was discard from the plate, the plates were tapped on paper towel, washed 4× with 200 μL of ELISA wash buffer; the plates were tapped the plates on paper towel. One-hundred (100) L of TMB was added and the plates shaken for 2 minutes—while watching for color development. One-hundred (100) L Stop solution was added when light blue color developed. Plates were shaken and read at 450 nm.
Progression of prostate cancer in patients treated with anti-androgen therapy usually involves one of several mechanisms of enhanced Androgen Receptor (AR) signaling, including increased intratumoral androgen synthesis, increased AR expression and AR mutations. PROTACs (PROteolysis TArgeting Chimera), which use bi-functional molecules that simultaneously bind a target of choice and an E3 ligase, cause ubiquitination via induced proximity and degradation of the targeted, pathological protein. As opposed to traditional target inhibition, which is a competitive process, degradation is a progressive process. As such, it is less susceptible to increases in endogenous ligand, target expression, or mutations in the target. Thus, this technology appears to be ideal for addressing the mechanisms of AR resistance in patients with prostate cancer. Data was analyzed and plotted using GraphPad Prism software.
For `Cc1cc(O[C@H]2C(C)(C)[C@H](NC(=O)c3ccc(N4CCC(CN5CCN(c6ccc(C(=O)NC7CCC(=O)NC7=O)cc6)CC5)CC4)nn3)C2(C)C)cc(C)c1C#N` (stereo partly drawn) [Compound 2, N-((1R,3R)-3-(4-cyano-3,5-dimethylphenoxy)-2,2,4,4-tetramethylcyclobutyl)-6-(4-((4-(4-((2,6-dioxopiperidin-3-yl)carbamoyl)phenyl)piperazin-1-yl)methyl)piperidin-1-yl)pyridazine-3-carboxamide], the DC50 is below 1 nM and the Dmax is at least 70%.

Turning to `CC1(C)[C@H](NC(=O)c2ccc(N3CCC(CN4CCN(c5ccc(C(=O)NC6CCC(=O)NC6=O)cc5)CC4)CC3)nn2)C(C)(C)[C@H]1Oc1ccc(C#N)c(Cl)c1` (stereo partly shown) [Compound 3, N-[3-(3-chloro-4-cyanophenoxy)-2,2,4,4-tetramethylcyclobutyl]-6-[4-[(4-[4-[(2,6-dioxopiperidin-3-yl)carbamoyl]phenyl]piperazin-1-yl)methyl]piperidin-1-yl]pyridazine-3-carboxamide], the DC50 is below 1 nM and the Dmax is at least 70%.

`CC1(C)[C@H](NC(=O)c2ccc(N3CCC(CN4CCN(c5cccc(C(=O)NC6CCC(=O)NC6=O)c5)CC4)CC3)cc2)C(C)(C)[C@H]1Oc1ccc(C#N)c(Cl)c1` (stereo partly drawn) [Compound 4, 3-(4-((1-(4-(((1R,3R)-3-(3-chloro-4-cyanophenoxy)-2,2,4,4-tetramethylcyclobutyl)carbamoyl)phenyl)piperidin-4-yl)methyl)piperazin-1-yl)-N-(2,6-dioxopiperidin-3-yl)benzamide] came in with a DC50 below 1 nM and a Dmax below 50%.

In the case of `Cc1cc(O[C@H]2C(C)(C)[C@H](NC(=O)c3ccc(N4CCC(CN5CCN(c6cncc(C(=O)NC7CCC(=O)NC7=O)c6)CC5)CC4)cc3)C2(C)C)cc(C)c1C#N` (stereo partly shown) [Compound 5, N-(2,6-dioxopiperidin-3-yl)-5-(4-[[1-(4-[[(1r,3r)-3-(4-cyano-3,5-dimethylphenoxy)-2,2,4,4-tetramethylcyclobutyl]carbamoyl]phenyl)piperidin-4-yl]methyl]piperazin-1-yl)pyridine-3-carboxamide], the DC50 is below 1 nM and the Dmax was below 50%.

The molecule `Cc1cc(O[C@H]2C(C)(C)[C@H](NC(=O)c3ccc(N4CCC(CN5CCN(c6ccc(F)c(C(=O)NC7CCC(=O)NC7=O)c6)CC5)CC4)cc3)C2(C)C)cc(C)c1C#N` (stereo partly drawn) [Compound 6, 5-(4-((1-(4-(((1R,3R)-3-(4-cyano-3,5-dimethylphenoxy)-2,2,4,4-tetramethylcyclobutyl)carbamoyl)phenyl)piperidin-4-yl)methyl)piperazin-1-yl)-N-(2,6-dioxopiperidin-3-yl)-2-fluorobenzamide] came in with a DC50 below 1 nM and a Dmax of 50 to 70%.

For `CC1(C)[C@H](NC(=O)c2ccc(N3CCC(CN4CCN(c5ccc(C(=O)NC6CCC(=O)NC6=O)cc5)CC4)CC3)cc2)C(C)(C)[C@H]1Oc1ccc(C#N)c(Cl)c1` (stereo partly drawn) [Compound 7, N-((1R,3R)-3-(3-chloro-4-cyanophenoxy)-2,2,4,4-tetramethylcyclobutyl)-4-(4-((4-(4-((2,6-dioxopiperidin-3-yl)carbamoyl)phenyl)piperazin-1-yl)methyl)piperidin-1-yl)benzamide], the DC50 is below 1 nM and the Dmax is at least 70%.

For the molecule `CC1(C)[C@H](NC(=O)c2ccc(N3CCC(CN4CCN(c5ccc(F)c(C(=O)NC6CCC(=O)NC6=O)c5)CC4)CC3)cc2)C(C)(C)[C@H]1Oc1ccc(C#N)c(Cl)c1` (stereo partly drawn) [Compound 8, 5-(4-((1-(4-(((1R,3R)-3-(3-chloro-4-cyanophenoxy)-2,2,4,4-tetramethylcyclobutyl)carbamoyl)phenyl)piperidin-4-yl)methyl)piperazin-1-yl)-N-(2,6-dioxopiperidin-3-yl)-2-fluorobenzamide], the DC50 was below 1 nM and the Dmax was below 50%.

For the molecule `CC(C)N(CC1CCN(c2cnc(C(=O)N[C@H]3C(C)(C)[C@H](Oc4ccc(C#N)c(Cl)c4)C3(C)C)cn2)CC1)[C@H]1C[C@H](Oc2cccc(C(=O)NC3CCC(=O)NC3=O)c2)C1` (stereo partly drawn) [Compound 9, N-((1R,3R)-3-(3-chloro-4-cyanophenoxy)-2,2,4,4-tetramethylcyclobutyl)-5-(4-((((1R,3R)-3-(3-((2,6-dioxopiperidin-3-yl)carbamoyl)phenoxy)cyclobutyl)(isopropyl)amino)methyl)piperidin-1-yl)pyrazine-2-carboxamide], the DC50 was at least 100 nM and the Dmax is below 50%.

Regarding `Cc1cc(O[C@H]2C(C)(C)[C@H](NC(=O)c3ccc(N4CCC(CN5CCN(c6ccnc(C(=O)NC7CCC(=O)NC7=O)c6)CC5)CC4)cc3)C2(C)C)cc(C)c1C#N` (stereo partly drawn) [Compound 10, 4-(4-((1-(4-(((1R,3R)-3-(4-cyano-3,5-dimethylphenoxy)-2,2,4,4-tetramethylcyclobutyl)carbamoyl)phenyl)piperidin-4-yl)methyl)piperazin-1-yl)-N-(2,6-dioxopiperidin-3-yl)picolinamide], the DC50 was below 1 nM and the Dmax fell in the range of 50 to 70%.

Consider `Cc1cc(O[C@H]2C(C)(C)[C@H](NC(=O)c3cnc(N4CCC(CN(C(C)C)[C@H]5C[C@H](Oc6cccc(C(=O)NC7CCC(=O)NC7=O)c6)C5)CC4)nc3)C2(C)C)cc(C)c1C#N` (stereo partly drawn) [Compound 11, N-((1R,3R)-3-(4-cyano-3,5-dimethylphenoxy)-2,2,4,4-tetramethylcyclobutyl)-2-(4-((((1R,3R)-3-(3-((2,6-dioxopiperidin-3-yl)carbamoyl)phenoxy)cyclobutyl)(isopropyl)amino)methyl)piperidin-1-yl)pyrimidine-5-carboxamide], for which the DC50 is below 1 nM and the Dmax lay in the range of 50 to 70%.

The next experiment concerns the target T2, Androgen Receptor (AR) (Homo sapiens, UniProt P10275).
T2 construct: endogenous in cells; host or cells: VCaP
T2 sequence (P10275 1-920): T1 sequence (P10275 1-920)
Nature of the experiment: AR immunofluorescence staining, high content imager, VCaP cells. Type of experiment: cell-based. The note with it: AR degradation by immunofluorescence. The method, boiled down:
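VCaP cells treated with compound, fixed in 4% PFA (8% 2× solution added directly for low-adherence lines), permeabilised with 0.1% Triton X-100 and blocked. Stained overnight at 4° C with anti-AR antibody, then FITC anti-rabbit secondary plus phalloidin and DAPI/Hoechst. Read by high-content imaging.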
Molecule `COc1cc(O[C@H]2C[C@H](N3CCOC4(CCN(c5ccc(C(=O)N[C@H]6C(C)(C)[C@H](Oc7cc(C)c(C#N)c(C)c7)C6(C)C)cc5)CC4)C3)C2)cc(C(=O)NC2CCC(=O)NC2=O)c1` (stereo partly shown) [Compound 76, N-(2,6-dioxopiperidin-3-yl)-3-methoxy-5-[(1r,3r)-3-[9-(4-{[(1r,3r)-3-(4-cyano-3,5-dimethylphenoxy)-2,2,4,4-tetramethylcyclobutyl]carbamoyl}phenyl)-1-oxa-4,9-diazaspiro[5.5]undecan-4-yl]cyclobutoxy]benzamide] came in with a DC50 of 1 to 10 nM.

Staying with this experiment, now noted: maximal AR degradation.
In the case of `COc1cc(O[C@H]2C[C@H](N3CCOC4(CCN(c5ccc(C(=O)N[C@H]6C(C)(C)[C@H](Oc7cc(C)c(C#N)c(C)c7)C6(C)C)cc5)CC4)C3)C2)cc(C(=O)NC2CCC(=O)NC2=O)c1` (stereo partly shown) [Compound 76, N-(2,6-dioxopiperidin-3-yl)-3-methoxy-5-[(1r,3r)-3-[9-(4-{[(1r,3r)-3-(4-cyano-3,5-dimethylphenoxy)-2,2,4,4-tetramethylcyclobutyl]carbamoyl}phenyl)-1-oxa-4,9-diazaspiro[5.5]undecan-4-yl]cyclobutoxy]benzamide], the Dmax is below 50%.

The values above are taken from patent US12427144B2, “Compounds and methods for the targeted degradation of androgen receptor” (Arvinas Operations, Inc., priority 2019, dated 2025).
